Assay results from patent publication US9834521B2, “Choline kinase inhibitors” (ARIAD Pharmaceuticals, Inc., priority 2013, dated 2017).

Target: T1, truncated form of human Choline kinase α1 that includes residues 75-457 (Homo sapiens, UniProt P35790)
T1 construct: made in house
Assay: Kinase Assay, coupled (ATP regeneration) LDH/PK assay, NADH absorbance
Assay type: biochemical
Conditions: Examples not designated with an asterisk; footnote prints version 1 of the Kinase Assay; read-out: IC50
Description: Absorbance of NADH (340 nm) was measured over 30 min using a SpectraMax M5 (Molecular Devices). Initial reaction velocity (ΔA340/Δt) was calculated and plotted as a function of inhibitor concentration in a 2-fold dilution series. IC50 values were obtained by fitting the relative velocities to a dose-response model.

T1 sequence (P35790 75-457): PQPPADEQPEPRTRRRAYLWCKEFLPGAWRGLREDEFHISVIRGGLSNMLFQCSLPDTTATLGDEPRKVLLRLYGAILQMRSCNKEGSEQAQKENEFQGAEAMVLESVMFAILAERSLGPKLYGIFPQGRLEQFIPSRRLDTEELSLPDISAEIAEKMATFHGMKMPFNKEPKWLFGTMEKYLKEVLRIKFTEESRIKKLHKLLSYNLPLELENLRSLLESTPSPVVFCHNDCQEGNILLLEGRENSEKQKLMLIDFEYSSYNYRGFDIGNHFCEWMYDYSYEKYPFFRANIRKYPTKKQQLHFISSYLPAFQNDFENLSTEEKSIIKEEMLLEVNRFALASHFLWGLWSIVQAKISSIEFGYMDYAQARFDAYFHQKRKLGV

SMILES	IC50
CN1CCCN(Cc2ccc(-c3ccc(C(=O)N4CCCN(C)CC4)cc3-c3ccc([N+](=O)[O-])cc3)c(C#N)c2)CC1 [Example 73, 4-((4-methyl-1,4-diazepan-1-yl)methyl)-4′-(4-methyl-1,4-diazepane-1-carbonyl)-4″-nitro-[1,1′:2′,1″-terphenyl]-2-carbonitrile]	< 500 nM
COc1cccc(-c2cc(C(=O)N3CCCN(C)CC3)ccc2-c2ccc(CN3CCCN(C)CC3)cc2C#N)c1 [Example 74, 3″-methoxy-4-((4-methyl-1,4-diazepan-1-yl)methyl)-4′-(4-methyl-1,4-diazepane-1-carbonyl)[1,1′:2′,1″-terphenyl]-2-carbonitrile]	< 500 nM
CN1CCCN(Cc2ccc(-c3ccc(C(=O)N4CCCN(C)CC4)cc3-c3ccc(S(C)(=O)=O)cc3)c(C#N)c2)CC1 [Example 75, 4-((4-methyl-1,4-diazepan-1-yl)methyl)-4′-(4-methyl-1,4-diazepane-1-carbonyl)-4″-(methylsulfonyl)-[1,1′1:2′,1″-terphenyl]-2-carbonitrile]	< 500 nM
CN1CCCN(Cc2ccc(-c3ccc(C(=O)N4CCCN(C)CC4)cc3-c3ccc(C(=O)N(C)C)cc3)c(C#N)c2)CC1 [Example 76]	< 2000 nM
CN1CCCN(Cc2ccc(-c3ccc(C(N)=O)cc3F)c(C#N)c2)CC1 [Example 96, 2′-cyano-2-fluoro-4′-((4-methyl-1,4-diazepan-1-yl)methyl)-[1,1′-biphenyl]-4-carboxamide]	< 500 nM
Cc1cc(S(=O)(=O)N(C)C)ccc1-c1ccc(CN2CCCN(C)CC2)cc1C#N [Example 98, 2′-cyano-N,N,2-trimethyl-4′-((4-methyl-1,4-diazepan-1-yl)methyl)-[1,1′-biphenyl]-4-sulfonamide]	< 500 nM
CN1CCCN(Cc2ccc(-c3ccc(/C(N)=N/O)cc3)c(C#N)c2)CC1 [Example 99, (E)-2′-cyano-N′-hydroxy-4′-((4-methyl-1,4-diazepan-1-yl)methyl)-[1,1′-biphenyl]-4-carboximidamide]	< 500 nM
CN1CCCN(Cc2ccc(-c3ccc(N)c([N+](=O)[O-])c3)c(C#N)c2)CC1 [Example 101, 4′-amino-4-((4-methyl-1,4-diazepan-1-yl)methyl)-3′-nitro-[1,1′-biphenyl]-2-carbonitrile]	< 500 nM
CC(=O)N1CC=C(c2ccc(CN3CCCN(C)CC3)cc2C#N)CC1 [Example 103, 2-(1-acetyl-1,2,3,6-tetrahydropyridin-4-yl)-5-((4-methyl-1,4-diazepan-1-yl)methyl)benzonitrile]	< 500 nM
CN1CCCN(Cc2ccc(-c3ccc(C#N)cc3)c(C#N)c2)CC1 [Example 105, 4-((4-methyl-1,4-diazepan-1-yl)methyl)-[1,1′-biphenyl]-2,4′-dicarbonitrile]	< 500 nM
CN1CCCN(Cc2ccc(-c3ccc([N+](=O)[O-])cc3)c(C#N)c2)CC1 [Example 106, 4-((4-methyl-1,4-diazepan-1-yl)methyl)-4′-nitro-[1,1′-biphenyl]-2-carbonitrile]	< 500 nM
CN1CCCN(Cc2ccc(-c3ccc(N)nc3)c(C#N)c2)CC1 [Example 111, 2-(6-aminopyridin-3-yl)-5-((4-methyl-1,4-diazepan-1-yl)methyl)benzonitrile]	< 500 nM
CN1CCCN(Cc2ccc(-c3cn[nH]c3)c(C#N)c2)CC1 [Example 112, 5-((4-methyl-1,4-diazepan-1-yl)methyl)-2-(1H-pyrazol-4-yl)benzonitrile]	< 500 nM
CN1CCCN(Cc2ccc(-c3ccc(Oc4ccccc4N)cc3)c(C#N)c2)CC1 [Example 115, 4′-(2-aminophenoxy)-4-((4-methyl-1,4-diazepan-1-yl)methyl)-[1,1′-biphenyl]-2-carbonitrile]	< 2000 nM
CN1CCCN(Cc2ccc(-c3cc[nH]c3)c(C#N)c2)CC1 [Example 117, 5-((4-methyl-1,4-diazepan-1-yl)methyl)-2-(1H-pyrrol-3-yl)benzonitrile]	< 2000 nM
Cc1cc(-c2ccc(CN3CCCN(C)CC3)cc2C#N)cnc1N [Example 118, 2-(6-amino-5-methylpyridin-3-yl)-5-((4-methyl-1,4-diazepan-1-yl)methyl)benzonitrile]	< 2000 nM
CN1CCCN(Cc2ccc(-c3cnc(N)nc3)c(C#N)c2)CC1 [Example 119, 2-(2-aminopyrimidin-5-yl)-5-((4-methyl-1,4-diazepan-1-yl)methyl)benzonitrile]	< 2000 nM
Cc1cc(C#N)ccc1-c1ccc(CN2CCCN(C)CC2)cc1C#N [Example 121, 2′-methyl-4-((4-methyl-1,4-diazepan-1-yl)methyl)-[1,1′-biphenyl]-2,4′-dicarbonitrile]	< 2000 nM

The next lines start with the values.

IC50	SMILES
< 500 nM	CC(=O)NCCc1ccc(-c2ccc(CN3CCCN(C)CC3)cc2C#N)cc1 [Example 95, N-(2-(2′-cyano-4′-((4-methyl-1,4-diazepan-1-yl)methyl)-[1,1′-biphenyl]-4-yl)ethyl)acetamide]
< 500 nM	CN1CCCN(Cc2ccc(-c3ccc(CC(N)C(=O)O)cc3)c(C#N)c2)CC1 (centres unmarked) [Example 100, 2-amino-3-(2′-cyano-4′-((4-methyl-1,4-diazepan-1-yl)methyl)-[1,1′-biphenyl]-4-yl)propanoic acid]
< 500 nM	CC(=O)Nc1ccc(-c2ccc(CN3CCCN(C)CC3)cc2C#N)cn1 [Example 102, N-(5-(2-cyano-4-((4-methyl-1,4-diazepan-1-yl)methyl)phenyl)pyridin-2-yl)acetamide]
< 500 nM	CN1CCCN(Cc2ccc(-c3ccc(O)cc3)c(C#N)c2)CC1 [Example 107, 4′-hydroxy-4-((4-methyl-1,4-diazepan-1-yl)methyl)-[1,1′-biphenyl]-2-carbonitrile]
< 500 nM	CN1CCCN(Cc2ccc(-c3ccc(CO)cc3)c(C#N)c2)CC1 [Example 108, 4′-(hydroxymethyl)-4-((4-methyl-1,4-diazepan-1-yl)methyl)-[1,1′-biphenyl]-2-carbonitrile]
< 500 nM	CC(=O)NS(=O)(=O)c1ccc(-c2ccc(CN3CCCN(C)CC3)cc2C#N)cc1 [Example 109, N-((2′-cyano-4′-((4-methyl-1,4-diazepan-1-yl)methyl)-[1,1′-biphenyl]-4-yl)sulfonyl)acetamide]
< 500 nM	CC(=O)Nc1cc(-c2ccc(CN3CCCN(C)CC3)cc2C#N)ccc1[N+](=O)[O-] [Example 110, N-(2′-cyano-4′-((4-methyl-1,4-diazepan-1-yl)methyl)-4-nitro-[1,1′-biphenyl]-3-yl)acetamide]
< 2000 nM	CN1CCCN(Cc2ccc(-c3ccc(N)cc3)c(C#N)c2)CC1 [Example 113, 4′-amino-4-((4-methyl-1,4-diazepan-1-yl)methyl)-[1,1′-biphenyl]-2-carbonitrile]
< 2000 nM	CN1CCCN(Cc2ccc(-c3ccc(-c4nnc(N)s4)cc3)cc2)CC1 [Example 116, 5-(4′-((4-methyl-1,4-diazepan-1-yl)methyl)-[1,1′-biphenyl]-4-yl)-1,3,4-thiadiazol-2-amine]
< 2000 nM	CC(=O)N1CCN(c2ccc(-c3ccc(CN4CCCN(C)CC4)cc3)cn2)CC1 [Example 120, 1-(4-(5-(4-((4-methyl-1,4-diazepan-1-yl)methyl)phenyl)pyridin-2-yl)piperazin-1-yl)ethanone]
< 2000 nM	CC(=O)NNC(=O)CCc1ccc(-c2ccc(CN3CCCN(C)CC3)cc2)cc1 [Example 122, N′-acetyl-3-(4′-((4-methyl-1,4-diazepan-1-yl)methyl)-[1,1′-biphenyl]-4-yl)propanehydrazide]
